Results: patent publication US20060183119A1, “Method for determining predisposition to a physiological reaction in a patient” (UNIVERSITE LAVAL, priority 2002, published 2006)
Positions count from the first letter of the chain named.

Legend:
Format in all cases: in vitro ADME
Set-up in all cases: key to Function (SN-38G formation versus *1 allele): High: no significant difference in activity compared to *1 allele.; Low: significantly lower SN-38G formation versus *1 allele
UGT1A7*2 = target: T1, UGT1A7*2 (Homo sapiens, UniProt Q9HAW7, N129K/R131K); test: SN-38 glucuronidation by microsomes of HEK293 cells expressing UGT1A7*2
T1 construct: expressed in transfected cells
T1 sequence (Q9HAW7 26-530 N129K/R131K): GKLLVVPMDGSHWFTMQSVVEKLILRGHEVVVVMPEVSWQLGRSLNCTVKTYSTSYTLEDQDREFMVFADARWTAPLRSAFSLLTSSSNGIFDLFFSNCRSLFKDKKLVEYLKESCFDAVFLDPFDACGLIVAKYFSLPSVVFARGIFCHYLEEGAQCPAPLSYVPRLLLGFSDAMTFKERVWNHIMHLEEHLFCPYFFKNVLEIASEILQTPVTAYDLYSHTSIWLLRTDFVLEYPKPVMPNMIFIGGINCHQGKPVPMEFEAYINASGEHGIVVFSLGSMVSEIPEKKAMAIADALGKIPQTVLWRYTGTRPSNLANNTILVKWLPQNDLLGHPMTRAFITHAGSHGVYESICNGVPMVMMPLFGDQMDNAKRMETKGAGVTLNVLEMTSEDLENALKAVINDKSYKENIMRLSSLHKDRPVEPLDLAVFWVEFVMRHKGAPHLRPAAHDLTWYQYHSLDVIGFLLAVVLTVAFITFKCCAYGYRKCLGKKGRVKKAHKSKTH
Method: (§1) Western blot analyses of UGT1A7 and UGT1A9 variants expressed in HEK293 cells were performed on microsomal proteins (10 μg) separated on a 10% SDS-polyacrylamide gel. After transferring the proteins, the membranes were probed with an anti-UGT1A RC-71 polyclonal antibody and with an anti-calnexin antibody. The relative levels of UGT1A9 (a) and UGT1A7 proteins (b) were determined by semi-quantitative densitometric analysis of the Enhanced chemiluminescence (ECL) image. The in vitro SN-38 activity was assessed using microsomal fractions prepared from HEK293 cells expressing the *1 and variant UGT1A9 (c) and UGT1A7 (d) alleles and incubated with 5 μM of SN-38 as described in Materials and Methods.
(§2) For the determination of Vmax and Km.

UGT1A7*4 = target: T2, UGT1A7*4 (Homo sapiens, UniProt Q9HAW7, W208R); test: SN-38 glucuronidation by microsomes of HEK293 cells expressing UGT1A7*4
T2 construct: expressed in transfected cells
T2 sequence (Q9HAW7 26-530 W208R): T1 sequence (Q9HAW7 26-530 N129K/R131K) with K104N, K106R, W183R
Method: as §1, §2

UGT1A7*8 = target: T3, UGT1A7*8 (Homo sapiens, UniProt Q9HAW7, E139D/N129K/R131K/W208R); test: SN-38 glucuronidation by microsomes of HEK293 cells expressing UGT1A7*8
T3 construct: expressed in transfected cells
T3 sequence (Q9HAW7 26-530 N129K/R131K/E139D/W208R): T1 sequence (Q9HAW7 26-530 N129K/R131K) with E114D, W183R
Method: as §1, §2

UGT1A7*9 = target: T4, UGT1A7*9 (Homo sapiens, UniProt Q9HAW7, G115S/N129K/R131K); test: SN-38 glucuronidation by microsomes of HEK293 cells expressing UGT1A7*9
T4 construct: expressed in transfected cells
T4 sequence (Q9HAW7 26-530 G115S/N129K/R131K): T1 sequence (Q9HAW7 26-530 N129K/R131K) with G90S
Method: as §1, §2

## CCc1c2c(nc3ccc(O)cc13)-c1cc3c(c(=O)n1C2)COC(=O)[C@]3(O)CC [SN-38, 7-ethyl-10-hydroxycamptothecin]
UGT1A7*2
  SN-38 glucuronidating activity of the allele (in words): highest
UGT1A7*2; in vitro experiments
  Function (SN-38G formation versus *1 allele): High
UGT1A7*4
  SN-38 glucuronidating activity of the allele (in words): low
UGT1A7*4; in vitro experiments
  Function (SN-38G formation versus *1 allele): Low
UGT1A7*8
  SN-38 glucuronidating activity of the allele (in words): low
UGT1A7*8; in vitro experiments
  Function (SN-38G formation versus *1 allele): Low
UGT1A7*8; range given for *5, *7 and *8 together
  lower rates of SN-38G formation compared to UGT1A7*1: 38-76%
UGT1A7*9
  SN-38 glucuronidating activity of the allele (in words): highest and low
UGT1A7*9; in vitro experiments
  Function (SN-38G formation versus *1 allele): Low
